Experiments:
[1] = tested on: GS-NS0 cell line 6A1(100)3; assay: GS-NS0 6A1 fed-batch culture (shake flask / airlift bioreactor): growth and antibody productivity by protein A-HPLC; conditions: for single cell productivity (qp): fed-batch shake flask
Experimental: (§1) Where not specified, antibody productivity or titer was determined by protein A-HPLC.
The GS-NS0 cell line 6A1(100)3, 6A1 for short, secreting recombinant mouse/human chimeric IgG cB72.3 (Bebbington, 1992, supra) was used in all experimental settings under this section. Cell culture was either carried out in shake flask culture or in a fed-batch mode in a 101 standard airlift bioreactor, essentially as described (Bebbington, 1992). Feeds essentially comprised amino acids and carbohydrate as described above for high-density media and fermentation, respectively. Feed volume was at 4% of post-inocculation volume. Feed was initiated at a rate of 0.2 ml/Lh when viable cell density exceeded 14×10^5 cells/ml. Temperature was controlled at 36.5 degree centigrade; for airlift, air saturation was at 15%. pH was controlled at pH 7.00. Culture was inoculated at 2×10^5 viable cells/ml. Medium is serum- and essentially protein-free growth medium ProCH04-CDM (BioWhittaker) supplemented with […] methionine sulfoximine (MSX). Cells were pre-adapted to medium. […] Positively, it did prolong stationary phase upon fermentation.
Cumulative cell time (10^6 cell/h ml) was calculated by integration of the cell growth curve, essentially as described by Renard et al. (1988, Biotechnology Letters 10, 91-96).
Either sodium acetate or potassium acetate were added to shake flask culture during mid-exponential growth phase to the final concentrations stated in the respective sections of the table of FIG. 1. Cultures were counted daily by Trypan blue method and samples were taken for product analysis by means of protein A fractionation and HPLC analysis.
Duplicate cultures both for control and 10 mM sodium acetate supplemented culture were tested for viable cell concentration (determined by Trypan blue exclusion standard counting test). Feed was started at day 4. The acetate was not fed during growth phase as in FIG. 1 but was included in cell culture production medium right away to which the inocculum cells were added. […] The CCT remained essentially similar for all cultures.
Exp. 2 was conducted essentially as described above for exp. 1/FIG. 2, except that now 7.5 mM sodium acetate and a proprietary high-density culture medium was used, similar to the lipid supplemented high-density media described in EP435 911 A but distinct in employing less ethanolamine and no thioglycerole and keeping Tryptophan concentration constant at 19 mM by sensor-controlled automatic feeding. […] In contrast to exp. 1, the same maximum viable cell density could be achieved in the presence of actetate as compared to the control without acetate in the absence of any adverse effect on duration of stationary phase growth. Similarly, product concentration increased steadily over control and over time (FIG. 6).
In the permissible range, no increase in productivity could be seen at all, not even at the single cell level. The experiment was conducted essentially as described in exp. 1/FIG. 2, except that butyrate was added in the amounts shown instead of acetate. […] FIG. 9-11 show the effect of butyrate addition on CCT, antibody titer at harvest and single cell specific productivity (qp).

[2] = tested on: cultured human endothelial cells; conditions: acetate at 5 mM; cited from earlier work
CHO cell culture = conditions: added to medium with 1 mM sodium butyrate; lithium salts 10 mM, LPS 1 μg/ml, sodium acetate 10 mM; cited from earlier work
[3] = tested on: hybridoma cell line VPM 8; assay: VPM 8 hybridoma culture: CCT, harvest antibody titer, specific productivity
Experimental: as §1
A dose response study for addition of sodium acetate was carried out for hybridoma cell line VPM 8 (ECACC No. 93113024, European Collection of cell cultures, supra) essentially as described in exp. 3, except that VPM 8 was grown in commercial, protein-free medium CD-Hybridoma (Invitrogen/U.K.) and in that no MSX was added, since not being a GS cell line. VPM 8 is a mouse hybridoma that was generated by conventional means of cell fusion with non-secreting myeloma cells and secretes a murine IgG1 antibody.
The experiment has been carried out essentially as described in exp. 5, except that acetate was substituted with n-butyrate in the amounts stated in the figures.

[4] = added during mid-exponential growth phase
[5] = 7.5 mM, high-density medium, Experiment 2
[6] = CD-Hybridoma protein-free medium, Experiment 5

CC(=O)[O-].[K+] [potassium acetate]
single cell productivity (qp) [1, 4]: increased

CC(=O)[O-].[Na+] [sodium acetate]
expression-enhancing effect on tPA production [2]: did not differ significantly from the control
cell growth parameters (cell growth rate and cumulative cell time) [1, 5]: only small decreases
harvest antibody concentration [1, 5]: large increase
productivity in fed-batch shake flask culture ([1]; 10 mM, added during mid-exponential growth phase, compared with potassium acetate at 10 mM or 15 mM): performed even better than potassium acetate
effect on growth ([1]; Experiment 1, acetate supplementation): not to suppress growth
Increases in protein yield ([1]; acetate-supplemented culture compared to control, Experiment 1): up to 98%
growth suppression in terms of maximum cell density ([1]; fed-batch bioreactor, 10 mM included in production medium): No significant growth suppression
single cell productivity (qp) [1, 4]: increased
protein yield ([1]; grown with 10 mM acetate (control 470 mg/L)): 768 mg/L
optimal concentration with regard to antibody yield and process robustness ([1]; proprietary high-density culture medium, Experiment 2): 7.5 mM
protein yield enhancing effect in comparison to the butyrate control (CHO cell culture): literally no benefit over the control
productivity compared to non-treated control [3, 6]: enhanced productivity
tolerance by the cells [3, 6]: tolerates acetate surprisingly easily in the mM range

CCC(=O)O [proprionate]
expression-enhancing effect on tPA production [2]: found to have such effect

CCCCC(=O)O [valerate]
expression-enhancing effect on tPA production [2]: found to have such effect

lipopolysaccharide [LPS, reference compound]
protein yield enhancing effect in comparison to the butyrate control (CHO cell culture): about 4 times

[Cl-].[Li+] [LiCl, reference compound]
modification of the effect of acetate addition ([1]; feed supplemented to final approx. 1-10 mM, data not shown): did not prove to modify the effect of acetate addition in any way

CCCC(=O)[O-].[Na+] [Butyrate, sodium n-butyrate, reference compound]
expression-enhancing effect on tPA production [2]: outstanding effect
dose strongly toxic to the cells (rapid decrease of viable cell density) ([1]; Experiment 4): > 1 mM
antibody productivity ([1]; butyrate added instead of acetate, Experiment 4): does not increase antibody productivity
antibody titer ([3]; Experiment 6): not effective in increasing antibody titer
toxicity for the cell line ([3]; Experiment 6): exceptional toxicity

Source: patent US8338177B2, “Cell culture medium” (Lonza Biologics PLC, priority 2002, dated 2012)
